Measurements as given in patent US4894388A, “Glycosidase inhibitors and use thereof” (priority 1988, dated 1990).

Key:
[1] = tested on: α-D-mannosidase (multiple forms); assay: Inhibition of multiple forms of α-D-mannosidase; type: biochemical; settings: human liver
Protocol: (§1) Post mortem human liver, which had been stored at -20° C. until required was homogenized in deionized water (50%, w/v) in a Potter-Elvehjem homogenizer and then centrifuged at 37,000 g for 30 min in an MSE 18 centrifuge. The resultant supernatant was used as the source of enzymic activities.
(§2) The glycosidase activities in an extract of normal human liver were assayed by using the appropriate fluorigenic 4-methylumbelliferyl glycoside substrate (Koch-Light, Haverhill, Suffolk, U.K.) with a concentration of 0.5 mM at the optimal pH of each enzyme [Burditt et al., Clin. Chim. Acta 140, 201-209 (1980)]. Human liver acidic (lysomal) and neutral (cystosolic) α-D-mannosidases were assayed similarly at their pH-optima, of 4.0 and 6.5, respectively, after separation by affinity chromatography on concanavalin A-Sepharose® (Pharmacia Ltd, Milton Keynes, Bucks, U.K.) [Phillips et al., Biochem. J. 153, 579-587 (1976)]. The residual intermediate (Golgi) α-mannosidase II activity in extracts of fibroblasts from a patient with the lysosomal storage disease, mannosidosis, was assayed at pH 5.75 using the synthetic substrate (Burditt et al, Ibid.). The specificity of the inhibitors was determined by assaying the glycosidases in the presence and absence of a 1 mM solution of each compound. The nature of the inhibition and the value of Ki were determined using the Dixon graphical procedure.

[2] = tested on: β-D-glucosidase; assay: Inhibition of β-D-glucosidase; type: biochemical, human; settings: relative to α-D-mannosidase
Protocol: as §1, §2

[3] = molecular target: T1, Golgi α-D-mannosidase II (Homo sapiens, UniProt Q16706); assay: Inhibition of Golgi α-D-mannosidase II in extracts of fibroblasts from a mannosidosis patient; type: biochemical; settings: for inhibition at 1000 µM: 1 mM inhibitor, pH 5.75, mean of 2-4 determinations
T1 construct: activity in extracts of fibroblasts from a patient; endogenous in cells; host or cells: fibroblasts from a mannosidosis patient (extract)
T1 sequence (Q16706 1-1144): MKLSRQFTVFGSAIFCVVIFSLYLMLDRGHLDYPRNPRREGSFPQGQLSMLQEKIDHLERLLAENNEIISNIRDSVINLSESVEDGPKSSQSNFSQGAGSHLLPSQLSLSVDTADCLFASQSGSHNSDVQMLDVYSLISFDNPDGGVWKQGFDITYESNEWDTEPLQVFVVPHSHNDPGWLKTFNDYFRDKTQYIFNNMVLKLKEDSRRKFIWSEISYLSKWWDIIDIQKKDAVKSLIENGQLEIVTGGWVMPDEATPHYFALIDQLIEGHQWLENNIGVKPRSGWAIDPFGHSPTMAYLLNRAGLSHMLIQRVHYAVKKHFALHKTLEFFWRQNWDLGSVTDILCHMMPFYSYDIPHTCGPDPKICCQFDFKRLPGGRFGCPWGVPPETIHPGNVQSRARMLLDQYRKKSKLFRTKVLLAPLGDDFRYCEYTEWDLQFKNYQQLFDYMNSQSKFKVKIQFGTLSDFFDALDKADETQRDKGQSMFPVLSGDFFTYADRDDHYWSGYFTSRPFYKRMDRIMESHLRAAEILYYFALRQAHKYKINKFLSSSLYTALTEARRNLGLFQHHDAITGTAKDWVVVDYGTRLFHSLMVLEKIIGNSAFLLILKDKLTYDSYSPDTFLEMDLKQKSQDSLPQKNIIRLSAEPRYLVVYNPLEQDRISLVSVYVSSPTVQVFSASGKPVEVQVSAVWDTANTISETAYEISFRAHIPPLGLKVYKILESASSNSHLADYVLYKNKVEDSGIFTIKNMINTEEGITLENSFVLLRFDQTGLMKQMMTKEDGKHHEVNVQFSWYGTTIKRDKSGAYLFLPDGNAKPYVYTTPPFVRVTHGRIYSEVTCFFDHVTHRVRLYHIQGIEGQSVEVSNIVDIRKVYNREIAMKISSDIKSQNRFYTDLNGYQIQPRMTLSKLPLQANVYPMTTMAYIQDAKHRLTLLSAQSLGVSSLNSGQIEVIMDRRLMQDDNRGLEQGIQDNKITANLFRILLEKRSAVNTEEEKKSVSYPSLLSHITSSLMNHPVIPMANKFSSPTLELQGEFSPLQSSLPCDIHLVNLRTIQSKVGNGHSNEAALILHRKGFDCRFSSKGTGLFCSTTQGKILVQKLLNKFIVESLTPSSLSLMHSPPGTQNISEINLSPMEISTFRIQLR
Protocol: as §2
Enzymic activities were measured in the presence and absence of 1 mM inhibitor. Inhibition (%) was calculated as the fraction of activity lost in the presence of inhibitor. The values are means of two to four independent determinations.

inhibition at 1000 µM [3] [%]	SMILES	inhibition of multiple forms of α-D-mannosidase (in words) [1]	inhibition of β-D-glucosidase (in words) [2]	inhibition of α-D-mannosidase II (in words) [3]
33	CN1C[C@@H](O)[C@@H](O)[C@@H]1[C@@H](O)CO [N-methyl DIA, N-methyl-1,4-dideoxy-1,4-imino-L-allitol]	–	–	–
0	OC[C@H](O)[C@H]1[C@H](O)[C@H](O)CN1Cc1ccccc1 [N-benzyl DIA, N-benzyl-1,4-dideoxy-1,4-imino-L-allitol]	–	–	–

SMILES	inhibition at 1000 µM [3] [%]	inhibition of multiple forms of α-D-mannosidase (in words) [1]	inhibition of β-D-glucosidase (in words) [2]	inhibition of α-D-mannosidase II (in words) [3]
OC[C@H](O)[C@@H]1NC[C@@H](O)[C@H]1O [DIA, 1,4-dideoxy-1,4-imino-L-allitol]	95	moderately strong inhibitor	to a lesser extent	potent inhibitor
